Results reported in patent US4634663A, “Method and reagent for quantitative determination of N-acetylhexosamine” (Noda Institute for Scientific Research, priority 1983, dated 1987).

Legend:
Format in all cases: biochemical, Pseudomonas sp. No. 15-1
[1] = tested on: N-acetylhexosamine oxidase; experiment: Activity inhibition of the enzyme by metallic ions or inhibitors
[2] = tested on: N-acetylhexosamine oxidase; experiment: as above; conditions: for Residual activity (%): tris-hydrochloric acid buffer solution of pH 7.5, 1.8mM metallic ion or inhibitor; for Inhibition of enzyme activity (in words): tris-hydrochloric acid buffer pH 7.5, 1.8mM
Method: The activity of the present enzyme was measured in various solutions each comprising a tris-hydrochloric acid buffer solution of pH 7.5 and 1.8mM metallic ion or inhibitor.

[3] = tested on: N-acetylhexosamine oxidase; experiment: Activity stabilization by bovine serum albumin during heat treatment; conditions: 1 mg/ml bovine serum albumin, potassium phosphate buffer pH 6.8, 10 minutes heat treatment
Method: Further, in 10 minutes heat treatment at 45° C., the present enzyme is stable between pH 3 and pH 9 and loses its activity rapidly at a more acidic region and slowly at a more alkaline region. In this experiment, the hydrogen peroxide method was adopted, and the residual activity of the present enzyme subjected to 10 minutes heat treatment in a potassium phosphate buffer solution of pH 6.8 at each temperature was compared with the residual activity of the same enzyme subjected to the same treatment in a potassium phosphate buffer solution of pH 6.8 containing 1 mg/ml of bovine serum albumin.

[4] = tested on: N-acetylhexosamine oxidase; experiment: Action and specificity for substrate; conditions: in the presence of oxygen
Source text: As shown in the following reaction formula, the present enzyme oxidizes N-acetylhexosamine in the presence of oxygen to form N-acetylhexosaminic acid and hydrogen peroxide.

| Compound | Residual activity (%) [2] | other results |
| --- | --- | --- |
| O=C([O-])CN(CCN(CC(=O)[O-])CC(=O)[O-])CC(=O)[O-].[Na+].[Na+].[Na+].[Na+] [EDTA, Ethylenediaminetetraacetic acid sodium salt] | – | Residual activity (%) ([1]; pH 7.5): 87% |
| O=S(=O)([O-])[O-].[Co+2] [CoSO4] | 75% | – |
| Oc1cccc2cccnc12 [8-Hydroxyquinoline] | – | Residual activity (%) ([1]; pH 7.5): 102% |
| [Ca+2].[Cl-].[Cl-] [CaCl2] | 91% | – |
| CCCCCCCCCCCCOS(=O)(=O)[O-].[Na+] [SDS, Sodium dodecylsulfate] | 87% | – |
| O=S(=O)([O-])[O-].[Fe+2] [FeSO4] | 15% | Inhibition of enzyme activity (in words) [2]: inhibited greatly |
| c1ccc(-c2ccccn2)nc1 [α,α'-Dipyridyl] | 106% | – |
| bovine serum albumin: bovine serum albumin added at 1 mg/ml as stabilizer of the enzyme | – | Effect on enzyme activity on heat treatment [3]: stabilized and moreover slightly enhanced |
| NC(=O)CI [ICH2 CONH2] | 90% | – |
| O=S(=O)([O-])[O-].[Cu+2] [CuSO4] | 74% | – |
| [N-]=[N+]=[N-].[Na+] [NaN3] | 103% | – |
| CC(=O)N[C@H]1[C@H]([C@H](O)[C@H](O)CO)OC(O)(C(=O)O)C[C@@H]1O (stereo partly drawn) [N-acetylneuraminic acid] | – | Action of the enzyme on substrate [4]: hardly acts or does not at all act |
| O=S(=O)([O-])[O-].[Mg+2] [MgSO4] | 86% | – |
| O=[N+]([O-])[O-].[Ag+] [AgNO3] | – | Residual activity (%) ([1]; Phosphate buffer solution, 1.8mM): 5% |
| O=S(=O)([O-])[O-].[Zn+2] [ZnSO4] | 2% | Inhibition of enzyme activity (in words) [2]: inhibited greatly |
| c1cnc2c(c1)ccc1cccnc12 [o'-Phenanthroline] | 81% | – |
| HgCl2 | 17% | Inhibition of enzyme activity (in words) [2]: inhibited greatly |
| O=C(O)c1cc[c]([Hg][Cl])cc1 [PCMB, pChloromercurybenzoate] | 67% | – |
| O=S(=O)([O-])[O-].[Ni+2] [NiSO4] | 64% | Inhibition of enzyme activity (in words) [2]: considerably |
| CC(=O)[O-].CC(=O)[O-].[Pb+2] [Pb(CH3 COO)2] | 42% | Inhibition of enzyme activity (in words) [2]: considerably |
| O=C(O)CF [FCH2 COONa] | 107% | – |
| O=S(=O)([O-])[O-].[Mn+2] [MnSO4] | 84% | – |
